From US12195551B2, “Combination of an ErbB-2/ErbB-3 bispecific antibody with endocrine therapy for breast cancer” (Merus N.V., priority 2017, dated 2025)

Key:
HBCx-34 PDX model = details: model characterisation; cited from earlier work
[1] = tested on: MCF-7 human breast carcinoma; assay: Efficacy in nude mouse xenograft model of MCF-7 human breast carcinoma; type: in vivo
Protocol: MCLA-128 was evaluated as monotherapy and in combination with the SERM Tamoxifen and SERD Fulvestrant (Faslodex®) for efficacy in a nude mouse xenograft model of estrogen responsive MCF-7 human breast carcinoma. The study design also included tumor collection for downstream analysis.
Treatments began on D1 in mice with established subcutaneous MCF-7 tumors. The study endpoint was intended to be a tumor volume endpoint of 1000 mm3 45 days, whichever came first. […] Tumor regressions, mean tumor growth, and treatment tolerability also were considered.
The animals were fed ad libitum water (reverse osmosis, 1 ppm Cl) and NIH 31 Modified and Irradiated Lab Diet® consisting of 18.0% crude protein, 6.0% crude fat, and 5.0% crude fiber. The mice were housed on irradiated Enrich-o'Cobs™ Laboratory Animal Bedding in static 85 microisolators on a 12-hour light cycle at […] (68-72° F.) and 40-60% humidity.
Three days prior to tumor cell implantation, estrogen pellets (0.36 mg estradiol, 60-day release, Innovative Research of America, Sarasota, FL) were implanted subcutaneously between the scapulae of all test animals using a sterilized trocar.
Xenografts were initiated with cultured MCF-7 human breast carcinoma cells. Tumor cells were grown to mid-log phase in RPMI-1640 medium containing 10% fetal bovine serum, 100 units/mL penicillin G, 100 μg/mL streptomycin sulfate, 2 mM glutamine, 10 mM HEPES, 0.075% sodium bicarbonate and 25 μg/mL gentamicin. On the day of tumor cell implant, the cells were trypsinized, pelleted, and resuspended in phosphate buffered saline (PBS) at a concentration of 1×10e8 cells/mL. Each test mouse received 1×10e7 MCF-7 cells implanted subcutaneously in the right flank, and tumor growth was monitored as their mean volume approached the desired 100 to 150 mm3 range.
Nineteen days after tumor cell implantation, designated as D1 of the study, the mice were placed into six groups of 15 animals and four groups of six animals, Individual tumor volumes ranged from 75 to 196 mm3 and group mean tumor volumes of 134-137 mm3 on D1. Tumor weight was estimated with the assumption that 1 mg is equivalent to 1 mm3 of tumor volume.
MCLA-128 was stored at 4° C., was provided pre-formulated at 2.5 mg/mL and ready to dose as 25 mg/kg in a 10 mL/kg dose volume, and was protected from light during storage and handling. Tamoxifen (Sigma-25 Aldrich. Lot No. WXBB5732V) was received as a powder and was stored at 4° C. protected from light. Each week, a 5 mg/mL dose solution was prepared in corn oil, and each mouse received 0.2 mL for a dose of 1 mg/animal. The dose solution was stored at 4° C. Fulvestrant tradename Faslodex® (AstraZeneca, Lot No. LV032, LW466, and LX432) was received as 50 mg/mL stock solution that was stored at 4° C. Each dosing day, the stock was diluted in corn oil to 25 mg/mL, and each mouse received 0.2 mL for a dose of 5 mg/animal.
Groups 1 and 7 served as controls for efficacy and sampling, respectively, and received MCLA-128 vehicle intraperitoneally (i.p.) on D1, 4, 8, 11, 15, 18, 22, 25, and 29 and corn oil subcutaneously (s.c.) every other day for fifteen doses (qod×15). Groups 2 and 8 were administered MCLA-128 at 25 mg/kg, i.p., on the same schedule as MCLA-128 vehicle. Groups 3 and 9 were administered Faslodex® at 5.0 mg/animal, s.c., once weekly for five weeks (qwk×5). Group 4 was administered Tamoxifen at 1 mg/animal, s.c., qod×15. Groups 5 and 10 received MCLA-128 and Faslodex®, on the regimens described above. Group 6 received MCLA-128 and Tamoxifen on the regimens described above.
MCLA-128 was administered at a 10 mL/kg dose volume, scaled to the individual body weight of each animal.

HER2 = assay: Reverse phase protein array (RPPA) in MCF-7 tumor xenografts: HER2; type: in vivo, human; details: vs vehicle group, one-way ANOVA
Text: FIG. 9. Reverse phase protein array (RPPA) in MCF-7 tumor xenografts treated with vehicle, MCLA-128, Fulvestrant, Tamoxifen, MCLA-128+ Fulvestrant or MCLA-128+ Tamoxifen. Proteins detected in this assay included (phospho)-Akt and (phospho)-HER3 (full data provided in Appendix 4). One-way ANOVA compared levels in all tumors derived from treatment groups with those derived from the PBS group. ** indicates P<0.01.
Tumors from groups 1-6 were collected when they had reached the maximum tolerated volume, or at the end of the experiment at day 39, which was 10 days after the last dose. Per treatment group, six tumors were included in the Reverse phase protein array (RPPA). The selection of tumors was made so that the average tumor size of the 6 specimens was close to that of the whole group. RPPA analysis was performed as follows: tumors were sectioned and placed on immunohistochemistry slides. Stromal and inflammatory content was macrodissected to purify for tumors cells. Protein lysates were prepared and protein content was quantified. […] Reverse phase protein array (RPPA) data were analyzed using one-way ANOVA to detect significant differences between the treatment groups and the vehicle group. […] Total ERK levels were increased in the single agent groups only, no differences were measured in the other groups or in the phosphorylated ERK analysis. […]

Row | Compound | response of the HBCx-34 PDX model (HBCx-34 PDX model) | % TGI (tumor growth inhibition) ([1]; D25, relative to the control group, MCLA-128 25 mg/kg i.p., Faslodex 5.0 mg/animal, Tamoxifen 1 mg/animal) [%] | median tumor volume ([1]; D25, MCLA-128 25 mg/kg i.p., Faslodex 5.0 mg/animal s.c. qwk×5, Tamoxifen 1 mg/animal s.c. qod×15) [mm3] | P relative to the control group ([1]; D25 tumor volumes, Mann-Whitney test) | anti-tumor efficacy / survival benefit (in words) ([1]; MCF-7 nude mouse xenograft model) | Total HER2 levels (RPPA) (HER2)
1 | CC/C(=C(\c1ccccc1)c1ccc(OCCN(C)C)cc1)c1ccccc1 [Tamoxifen] | responder | 69 | 184 | < 0.001 | significantly reduced tumor growth | significantly increased
2 | CC(=O)O[C@@]12CO[C@@H]1C[C@H](O)[C@@]1(C)C(=O)[C@H](O)C3=C(C)[C@@H](OC(=O)[C@H](O)[C@@H](NC(=O)OC(C)(C)C)c4ccccc4)C[C@@](O)([C@@H](OC(=O)c4ccccc4)[C@H]21)C3(C)C [Docetaxel] | responder | – | – | – | – | –
3 | CCCCCOC(=O)Nc1nc(=O)n([C@@H]2O[C@H](C)[C@@H](O)[C@H]2O)cc1F [Capecitabine] | responder | – | – | – | – | –
